Measurements as given in ChEMBL document CHEMBL6083275, “Discovery and evaluation of HW161023 as a potent and orally active AAK1 inhibitor” (Bioorg Med Chem Lett, 2024).

How the values were obtained:
[1] = target: AP2-associated protein kinase 1 (Homo sapiens, UniProt Q2M2I8); experiment: Inhibition of AAK1 (unknown origin)
[2] = Clearance in C57BL/6J mouse at 1 mg/kg, iv; format: ADME, organism-based; conditions: in vivo
[3] = Apparent volume of distribution in C57BL/6J mouse at 1 mg/kg, iv; format: ADME, organism-based; conditions: in vivo, read-out: Vz
[4] = AUC (0 to 24 hrs) in C57BL/6J mouse at 1 mg/kg, iv; format: ADME, organism-based; conditions: in vivo
[5] = Half-life in C57BL/6J mouse at 1 mg/kg, iv; format: ADME, organism-based; conditions: in vivo
[6] = Cmax in C57BL/6J mouse at 10 mg/kg, po; format: ADME, organism-based; conditions: in vivo
[7] = Tmax in C57BL/6J mouse at 10 mg/kg, po; format: ADME, organism-based; conditions: in vivo
[8] = AUC (0 to 24 hrs) in C57BL/6J mouse at 10 mg/kg, po; format: ADME, organism-based; conditions: in vivo
[9] = Half-life in C57BL/6J mouse at 10 mg/kg, po; format: ADME, organism-based; conditions: in vivo
[10] = Oral bioavailability in C57BL/6J mouse at 10 mg/kg; format: ADME, organism-based; conditions: in vivo
[11] = Metabolic stability in human liver microsomes assessed as half-life; format: ADME, Microsome
[12] = Metabolic stability in mouse liver microsomes assessed as half-life; format: ADME, Microsome
[13] = Metabolic stability in rat liver microsomes assessed as half-life; format: ADME, Microsome
[14] = Metabolic stability in dog liver microsomes assessed as half-life; format: ADME, Canis lupus familiaris, Microsome
[15] = Protein binding in human plasma assessed as unbound fraction; format: ADME, cell-free
[16] = Protein binding in mouse plasma assessed as unbound fraction; format: ADME, cell-free
[17] = Protein binding in rat plasma assessed as unbound fraction; format: ADME, cell-free
[18] = Protein binding in dog plasma assessed as unbound fraction; format: ADME, cell-free, Canis lupus familiaris
[19] = target: Voltage-gated inwardly rectifying potassium channel KCNH2 (Homo sapiens, UniProt Q12809); experiment: Inhibition of human ERG by patch clamp assay; format: toxicity
[20] = Cytotoxicity against human HepG2 cells; format: toxicity, cell-based
[21] = target: CYP2C9 (Homo sapiens, UniProt P11712); experiment: Inhibition of CYP2C9 (unknown origin) at 10 uM relative to control; format: ADME
[22] = target: CYP2D6 (Homo sapiens, UniProt P10635); experiment: Inhibition of CYP2D6 (unknown origin) at 10 uM relative to control; format: ADME
[23] = target: T1, CYP3A4 (Homo sapiens, UniProt P08684); experiment: Inhibition of CYP3A4 (unknown origin) using midazolam as substrate at 10 uM relative to control; format: ADME; conditions: probe midazolam
[24] = target: T1, CYP3A4; experiment: Inhibition of CYP3A4 (unknown origin) using testosterone as substrate at 10 uM relative to control; format: ADME; conditions: probe testosterone
[25] = Ratio of AUC (0 to 24 hrs) in C57BL/6J mouse brain to plasma; format: ADME; conditions: read-out: Ratio AUC
[26] = AUC (0 to 24 hrs) in rat at 10 mg/kg, po; format: ADME, organism-based; conditions: in vivo
[27] = Tmax in rat at 10 mg/kg, po; format: ADME, organism-based; conditions: in vivo
[28] = Oral bioavailability in rat at 10 mg/kg; format: ADME, organism-based; conditions: in vivo
[29] = Apparent volume of distribution in rat at 1 mg/kg, iv; format: ADME, organism-based; conditions: in vivo, read-out: Vz
[30] = Half-life in rat at 1 mg/kg, iv; format: ADME, organism-based; conditions: in vivo
[31] = Clearance in rat at 1 mg/kg, iv; format: ADME, organism-based; conditions: in vivo
[32] = AUC (0 to 24 hrs) in dog at 5 mg/kg, po; format: ADME, organism-based, Canis lupus familiaris; conditions: in vivo
[33] = Tmax in dog at 5 mg/kg, po; format: ADME, organism-based, Canis lupus familiaris; conditions: in vivo
[34] = Oral bioavailability in dog at 5 mg/kg; format: ADME, organism-based, Canis lupus familiaris; conditions: in vivo
[35] = Apparent volume of distribution in dog at 1 mg/kg, iv; format: ADME, organism-based, Canis lupus familiaris; conditions: in vivo, read-out: Vz
[36] = Half-life in dog at 1 mg/kg, iv; format: ADME, organism-based, Canis lupus familiaris; conditions: in vivo
[37] = Clearance in dog at 1 mg/kg, iv; format: ADME, organism-based, Canis lupus familiaris; conditions: in vivo

Chain of AP2-associated protein kinase 1 (Q2M2I8 whole entry): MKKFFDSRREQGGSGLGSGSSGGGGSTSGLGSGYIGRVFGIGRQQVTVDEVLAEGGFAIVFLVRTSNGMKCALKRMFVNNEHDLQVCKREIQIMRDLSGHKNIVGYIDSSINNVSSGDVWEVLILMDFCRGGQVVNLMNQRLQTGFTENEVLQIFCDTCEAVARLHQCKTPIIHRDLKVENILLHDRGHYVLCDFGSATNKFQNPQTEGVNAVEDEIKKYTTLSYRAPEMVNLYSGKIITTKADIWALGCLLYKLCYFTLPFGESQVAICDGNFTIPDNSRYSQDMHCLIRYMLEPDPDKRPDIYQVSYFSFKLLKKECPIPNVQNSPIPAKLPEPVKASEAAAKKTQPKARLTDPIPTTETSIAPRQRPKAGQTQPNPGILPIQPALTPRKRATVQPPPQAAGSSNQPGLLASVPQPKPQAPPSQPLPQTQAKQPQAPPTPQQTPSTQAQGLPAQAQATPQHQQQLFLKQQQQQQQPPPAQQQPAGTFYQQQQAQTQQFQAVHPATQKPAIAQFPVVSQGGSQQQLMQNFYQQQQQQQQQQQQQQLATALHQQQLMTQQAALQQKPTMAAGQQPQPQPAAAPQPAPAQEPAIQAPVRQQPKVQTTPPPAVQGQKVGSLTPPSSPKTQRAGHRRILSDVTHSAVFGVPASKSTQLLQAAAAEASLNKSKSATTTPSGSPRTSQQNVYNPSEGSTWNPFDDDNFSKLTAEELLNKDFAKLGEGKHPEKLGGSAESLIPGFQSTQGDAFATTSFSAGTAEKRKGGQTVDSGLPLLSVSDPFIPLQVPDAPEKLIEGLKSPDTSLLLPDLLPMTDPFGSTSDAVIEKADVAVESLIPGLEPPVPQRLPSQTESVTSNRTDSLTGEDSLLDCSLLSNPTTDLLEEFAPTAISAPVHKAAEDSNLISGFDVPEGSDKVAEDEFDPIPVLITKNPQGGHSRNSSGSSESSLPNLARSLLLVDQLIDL
T1 sequence (P08684 whole entry): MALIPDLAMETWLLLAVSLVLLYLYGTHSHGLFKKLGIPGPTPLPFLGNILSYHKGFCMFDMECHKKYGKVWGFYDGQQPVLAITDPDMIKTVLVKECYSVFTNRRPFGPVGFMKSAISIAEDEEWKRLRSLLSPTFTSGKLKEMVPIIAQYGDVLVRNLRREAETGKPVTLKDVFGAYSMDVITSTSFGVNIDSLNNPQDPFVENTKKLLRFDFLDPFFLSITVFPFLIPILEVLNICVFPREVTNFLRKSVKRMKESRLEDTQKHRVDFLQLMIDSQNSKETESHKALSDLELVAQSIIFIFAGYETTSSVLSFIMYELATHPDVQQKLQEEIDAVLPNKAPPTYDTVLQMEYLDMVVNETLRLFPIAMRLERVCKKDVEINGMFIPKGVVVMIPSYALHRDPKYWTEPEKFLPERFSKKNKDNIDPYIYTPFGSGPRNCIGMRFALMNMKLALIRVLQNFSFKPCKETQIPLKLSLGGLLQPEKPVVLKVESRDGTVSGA
Chain of CYP2D6 (P10635 whole entry): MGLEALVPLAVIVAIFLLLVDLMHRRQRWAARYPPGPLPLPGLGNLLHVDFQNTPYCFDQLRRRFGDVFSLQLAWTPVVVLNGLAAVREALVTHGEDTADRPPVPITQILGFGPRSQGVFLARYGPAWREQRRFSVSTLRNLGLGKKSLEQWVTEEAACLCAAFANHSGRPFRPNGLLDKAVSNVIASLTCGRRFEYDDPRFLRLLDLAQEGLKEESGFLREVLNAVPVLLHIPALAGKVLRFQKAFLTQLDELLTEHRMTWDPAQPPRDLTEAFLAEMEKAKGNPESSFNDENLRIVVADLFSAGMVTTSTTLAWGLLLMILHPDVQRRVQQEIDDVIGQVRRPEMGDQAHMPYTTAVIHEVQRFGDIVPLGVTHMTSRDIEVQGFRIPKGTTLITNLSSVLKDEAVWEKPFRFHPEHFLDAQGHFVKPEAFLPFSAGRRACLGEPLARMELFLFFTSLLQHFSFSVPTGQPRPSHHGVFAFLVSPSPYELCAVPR
Chain of CYP2C9 (P11712 whole entry): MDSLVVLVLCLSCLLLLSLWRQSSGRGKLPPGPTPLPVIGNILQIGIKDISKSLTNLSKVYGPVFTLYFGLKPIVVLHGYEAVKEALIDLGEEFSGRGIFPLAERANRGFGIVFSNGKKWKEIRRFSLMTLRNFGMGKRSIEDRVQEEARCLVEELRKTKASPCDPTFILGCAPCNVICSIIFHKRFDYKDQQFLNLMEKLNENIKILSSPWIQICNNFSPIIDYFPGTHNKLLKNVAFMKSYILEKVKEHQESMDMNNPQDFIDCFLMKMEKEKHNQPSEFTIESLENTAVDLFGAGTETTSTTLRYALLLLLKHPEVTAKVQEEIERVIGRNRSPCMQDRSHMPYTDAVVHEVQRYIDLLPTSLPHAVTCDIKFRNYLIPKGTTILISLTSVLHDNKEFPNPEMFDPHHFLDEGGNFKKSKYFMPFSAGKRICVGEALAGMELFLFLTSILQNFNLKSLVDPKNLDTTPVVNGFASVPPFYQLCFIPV
Chain of Voltage-gated inwardly rectifying potassium channel KCNH2 (Q12809 whole entry): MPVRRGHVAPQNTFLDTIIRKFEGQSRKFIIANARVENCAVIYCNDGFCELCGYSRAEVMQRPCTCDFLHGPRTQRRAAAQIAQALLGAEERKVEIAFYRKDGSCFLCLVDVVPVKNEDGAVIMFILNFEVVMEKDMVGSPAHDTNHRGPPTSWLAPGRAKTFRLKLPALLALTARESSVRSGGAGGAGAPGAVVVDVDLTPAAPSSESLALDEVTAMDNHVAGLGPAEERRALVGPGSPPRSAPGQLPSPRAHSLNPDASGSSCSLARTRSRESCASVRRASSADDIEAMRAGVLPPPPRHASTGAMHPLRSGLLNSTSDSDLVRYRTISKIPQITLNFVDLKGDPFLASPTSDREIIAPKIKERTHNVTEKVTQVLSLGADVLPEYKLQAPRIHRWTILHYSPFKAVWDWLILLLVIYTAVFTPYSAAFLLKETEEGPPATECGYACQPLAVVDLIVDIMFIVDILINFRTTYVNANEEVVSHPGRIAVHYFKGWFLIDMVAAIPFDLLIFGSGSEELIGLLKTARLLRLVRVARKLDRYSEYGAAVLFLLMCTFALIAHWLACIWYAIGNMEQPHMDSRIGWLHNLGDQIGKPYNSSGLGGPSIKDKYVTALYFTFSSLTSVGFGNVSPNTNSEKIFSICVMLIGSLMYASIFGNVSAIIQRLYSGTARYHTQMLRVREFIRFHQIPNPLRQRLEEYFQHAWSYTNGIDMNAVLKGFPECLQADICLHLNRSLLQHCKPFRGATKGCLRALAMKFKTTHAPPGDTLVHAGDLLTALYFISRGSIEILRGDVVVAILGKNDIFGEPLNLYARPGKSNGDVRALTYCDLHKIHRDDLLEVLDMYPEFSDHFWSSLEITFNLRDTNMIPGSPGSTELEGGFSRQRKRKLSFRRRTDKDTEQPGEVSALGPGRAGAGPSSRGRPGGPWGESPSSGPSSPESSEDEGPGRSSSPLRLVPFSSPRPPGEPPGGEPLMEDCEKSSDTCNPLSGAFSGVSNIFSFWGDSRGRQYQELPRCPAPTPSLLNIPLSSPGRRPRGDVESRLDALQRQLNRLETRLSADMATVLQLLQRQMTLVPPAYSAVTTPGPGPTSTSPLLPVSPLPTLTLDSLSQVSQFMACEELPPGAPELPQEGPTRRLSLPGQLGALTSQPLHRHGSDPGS

CC(C)C[C@](C)(N)COc1ccc(-c2ccnc(C(F)F)c2)nc1C(F)F [PILAVAPADIN]
IC50 [1]: 5 nM | clearance [2]: 12.2 mL/min/kg | Vd [3]: 18 L/kg | AUC(0-t) [4]: 892 ng·h/mL | half-life [5]: 17.3 h | Cmax [6]: 718 ng/mL | Tmax [7]: 1.17 h | AUC(0-t) [8]: 9150 ng·h/mL | half-life [9]: 19.6 h | bioavailability [10]: 103% | half-life [11]: 2.21 h | half-life [12]: 2.61 h | half-life [13]: 1.61 h | half-life [14]: 1.11 h | fraction unbound [15]: 0.0875 | fraction unbound [16]: 0.02 | fraction unbound [17]: 0.0894 | fraction unbound [18]: 0.0417 | IC50 [19]: 3400 nM | IC50 [20]: 9500 nM | inhibition at 10 µM [21]: < 20% | inhibition at 10 µM [22]: < 20% | inhibition at 10 µM [23]: < 20% | inhibition at 10 µM [24]: < 20% | Kp [25]: 13.9 | AUC(0-t) [26]: 3790 ng·h/mL | Tmax [27]: 6.7 h | bioavailability [28]: 77% | Vd [29]: 25 L/kg | half-life [30]: 9.9 h | clearance [31]: 28.3 mL/min/kg | AUC(0-t) [32]: 4740 ng·h/mL | Tmax [33]: 2.3 h | bioavailability [34]: 116% | Vd [35]: 5.3 L/kg | half-life [36]: 3.2 h | clearance [37]: 20 mL/min/kg

Cc1cnc2c(-c3ccnc(C(F)F)c3)ccc(OC[C@@](C)(N)CC(C)C)n12
IC50 [1]: > 20 nM

CC(C)C[C@](C)(N)COc1ccc(-c2ccnc(C(F)F)c2)n2cnnc12
IC50 [1]: > 20 nM

Cc1cn2c(OC[C@@](C)(N)CC(C)C)ccc(-c3ccnc(C(F)F)c3)c2n1
IC50 [1]: > 20 nM

CC(C)C[C@](C)(N)COc1ccc(-c2ccnc(C(F)F)c2)c2cnccc12
IC50 [1]: > 50 nM

CC(C)C[C@](C)(N)COc1ccc(-c2ccnc(C(F)F)c2)c2nc(C(F)F)cn12
IC50 [1]: > 20 nM
